The values that follow come from ChEMBL document CHEMBL4219034, “Synthesis, antimicrobial activity, structure-activity relationship and cytotoxic studies of a new series of functionalized (Z)-3-(2-oxo-2-substituted ethylidene)-3,4-dihydro-2H-benzo[b][1,4]oxazin-2-ones” (Bioorg Med Chem Lett, 2017).

≈ marks a conversion by molar mass, not a printed value. Calls of active or inactive are those of the source. The rule behind the calls is not given here.

A word on the MIC: it is the lowest concentration that inhibits growth of the organism.

Holding throughout (format): functional
For assay [1], the system named is Staphylococcus aureus. Briefly: Antibacterial activity against Staphylococcus aureus MTCC 3381 at 100 ug/ml incubated for 12 hrs by agar disc diffusion assay. To be noted: for zone of inhibition at 100 µg/mL: MTCC 3381, 12 h, read-out: IZ. (In general: A growth-free zone around the sample is the usual read-out of agar diffusion tests.)
Assay [2] concerns Bacillus subtilis. Briefly: Antibacterial activity against Bacillus subtilis MTCC 10619 at 100 ug/ml incubated for 12 hrs by agar disc diffusion assay. To be noted: for zone of inhibition at 100 µg/mL: MTCC 10619, 12 h, read-out: IZ.
For assay [3], the system named is Talaromyces funiculosus. Briefly: Antifungal activity against Penicillium funiculosum ATCC 11797 at 100 ug/ml incubated for 72 hrs by agar disc diffusion assay. As to conditions: for zone of inhibition at 100 µg/mL: ATCC 11797, 72 h, read-out: IZ.
Assay [4] concerns Escherichia coli. Briefly: Antibacterial activity against Escherichia coli MTCC 443 incubated for 24 hrs by serial dilution method.
The subject of assay [5] is Streptomyces griseus. Briefly: Antibacterial activity against Streptomyces griseus MTCC 4734 incubated for 24 hrs by serial dilution method.
The subject of assay [6] is Trichoderma reesei. Briefly: Antifungal activity against Trichoderma reesei ATCC 13631 at 100 ug/ml incubated for 72 hrs by agar disc diffusion assay. As to conditions: for zone of inhibition at 100 µg/mL: ATCC 13631, 72 h, read-out: IZ.
Assay [7] relates to Fusarium oxysporum. Briefly: Antifungal activity against Fusarium oxysporum ATCC 62506 incubated for 24 hrs by serial dilution method.
Assay [8] relates to Aspergillus niger. Briefly: Antifungal activity against Aspergillus niger ATCC 9029 incubated for 24 hrs by serial dilution method.
Assay [9] deals with Talaromyces funiculosus. Briefly: Antifungal activity against Penicillium funiculosum ATCC 11797 incubated for 24 hrs by serial dilution method.
The test system of assay [10] is Escherichia coli. Briefly: Antibacterial activity against Escherichia coli MTCC 443 at 100 ug/ml incubated for 12 hrs by agar disc diffusion assay. To be noted: for zone of inhibition at 100 µg/mL: MTCC 443, 12 h, read-out: IZ.
The test system of assay [11] is Aspergillus niger. Kind of assay: Antifungal activity against Aspergillus niger ATCC 9029 at 100 ug/ml incubated for 72 hrs by agar disc diffusion assay. As to conditions: for zone of inhibition at 100 µg/mL: ATCC 9029, 72 h, read-out: IZ.
Assay [12] deals with Staphylococcus aureus. Kind of assay: Antibacterial activity against Staphylococcus aureus MTCC 3381 incubated for 24 hrs by serial dilution method.
In assay [13] the test system is Bacillus subtilis. Briefly: Antibacterial activity against Bacillus subtilis MTCC 10619 incubated for 24 hrs by serial dilution method.
Assay [14] concerns Fusarium oxysporum. Kind of assay: Antifungal activity against Fusarium oxysporum ATCC 62506 at 100 ug/ml incubated for 72 hrs by agar disc diffusion assay. To be noted: for zone of inhibition at 100 µg/mL: ATCC 62506, 72 h, read-out: IZ.
In assay [15] the test system is Streptomyces griseus. Kind of assay: Antibacterial activity against Streptomyces griseus MTCC 4734 at 100 ug/ml incubated for 12 hrs by agar disc diffusion assay. To be noted: for zone of inhibition at 100 µg/mL: MTCC 4734, 12 h, read-out: IZ.
Assay [16] concerns Trichoderma reesei. Briefly: Antifungal activity against Trichoderma reesei ATCC 13631 incubated for 24 hrs by serial dilution method.

Regarding `O=C1Oc2ccc(Cl)cc2N/C1=C\C(=O)c1ccc(C2CCCCC2)cc1`, the “inhibition zone (IZ)” value with Staphylococcus aureus [1], in the assay with Bacillus subtilis [2], in the assay on Talaromyces funiculosus [3] and with Escherichia coli [10] was “inactive” throughout. The MIC entry in the assay with Escherichia coli [4], in the assay with Talaromyces funiculosus [9], with Staphylococcus aureus [12] and in the assay with Bacillus subtilis [13] was “inactive” each time. In addition, the MIC came to 100 µg/mL (≈ 262 µM) against Streptomyces griseus [5] (MTCC 4734, 24 h); 25 µg/mL (≈ 65.5 µM) in the assay on Fusarium oxysporum [7] (ATCC 62506, 24 h); 25 µg/mL (≈ 65.5 µM) against Aspergillus niger [8] (ATCC 9029, 24 h); 25 µg/mL (≈ 65.5 µM) against Trichoderma reesei [16] (ATCC 13631, 24 h). The zone of inhibition at 100 µg/mL amounted to 16 mm with Trichoderma reesei [6], 10 mm in the assay with Aspergillus niger [11], 14 mm in the assay with Fusarium oxysporum [14] and 6 mm with Streptomyces griseus [15].

Turning to `O=C1Oc2ccc(Cl)cc2N/C1=C\C(=O)c1ccc(-c2ccccc2)cc1`, the “inhibition zone (IZ)” value in the assay on Staphylococcus aureus [1], in the assay with Bacillus subtilis [2], with Trichoderma reesei [6], in the assay on Escherichia coli [10], with Fusarium oxysporum [14] and in the assay with Streptomyces griseus [15] was “inactive” throughout. The zone of inhibition at 100 µg/mL in the assay with Talaromyces funiculosus [3] was determined as 12 mm; in the assay on Aspergillus niger [11] it was 8 mm. Further, the MIC result in the assay with Escherichia coli [4], in the assay on Streptomyces griseus [5], in the assay with Fusarium oxysporum [7], in the assay on Staphylococcus aureus [12], in the assay on Bacillus subtilis [13] and in the assay with Trichoderma reesei [16] was “inactive” in each case. Besides, the MIC against Aspergillus niger [8] (ATCC 9029, 24 h) stood at 25 µg/mL (≈ 66.5 µM); against Talaromyces funiculosus [9] (ATCC 11797, 24 h) it was 25 µg/mL (≈ 66.5 µM).

As for `Cc1ccc2c(c1)N/C(=C\C(=O)C1CC1)C(=O)O2`, the figures for the zone of inhibition at 100 µg/mL in the assay on Staphylococcus aureus [1], with Escherichia coli [10] and in the assay on Streptomyces griseus [15] were 14 mm, 8 mm and 6 mm, respectively. In addition, the “inhibition zone (IZ)” value in the assay with Bacillus subtilis [2], in the assay with Talaromyces funiculosus [3], in the assay with Trichoderma reesei [6], with Aspergillus niger [11] and in the assay on Fusarium oxysporum [14] was “inactive” each time. For the same compound, the MIC was 100 µg/mL (≈ 411 µM) against Escherichia coli [4] (MTCC 443, 24 h); 100 µg/mL (≈ 411 µM) in the assay with Streptomyces griseus [5] (MTCC 4734, 24 h); 12.5 µg/mL (≈ 51.4 µM) in the assay with Staphylococcus aureus [12] (MTCC 3381, 24 h). For the same compound, the MIC result in the assay on Fusarium oxysporum [7], in the assay on Aspergillus niger [8], with Talaromyces funiculosus [9], with Bacillus subtilis [13] and in the assay on Trichoderma reesei [16] was “inactive” each time.

Regarding `O=C(N[C@H](CO)[C@H](O)c1ccc([N+](=O)[O-])cc1)C(Cl)Cl` [CHLORAMPHENICOL], the zone of inhibition at 100 µg/mL with Staphylococcus aureus [1] is 22 mm; with Bacillus subtilis [2], 26 mm; with Escherichia coli [10] it was 32 mm; with Streptomyces griseus [15] it was 28 mm. In addition, the MIC in the assay with Escherichia coli [4] (MTCC 443, 24 h) was determined as 6.25 µg/mL (≈ 19.3 µM); with Streptomyces griseus [5] (MTCC 4734, 24 h) it was 3.12 µg/mL (≈ 9.67 µM); against Staphylococcus aureus [12] (MTCC 3381, 24 h), 6.25 µg/mL (≈ 19.3 µM); in the assay with Bacillus subtilis [13] (MTCC 10619, 24 h), 6.25 µg/mL (≈ 19.3 µM).

Regarding `CC(=O)N1CCN(c2ccc(OCC3COC(Cn4ccnc4)(c4ccc(Cl)cc4Cl)O3)cc2)CC1` (configuration not stated) [KETOCONAZOLE], the zone of inhibition at 100 µg/mL was 22 mm in the assay on Talaromyces funiculosus [3], 24 mm with Trichoderma reesei [6], 18 mm in the assay with Aspergillus niger [11] and 20 mm in the assay on Fusarium oxysporum [14]. For the same compound, the MIC in the assay with Fusarium oxysporum [7] (ATCC 62506, 24 h) amounted to 12.5 µg/mL (≈ 23.5 µM); against Aspergillus niger [8] (ATCC 9029, 24 h) it was 12.5 µg/mL (≈ 23.5 µM); against Talaromyces funiculosus [9] (ATCC 11797, 24 h), 25 µg/mL (≈ 47 µM); with Trichoderma reesei [16] (ATCC 13631, 24 h) it was 25 µg/mL (≈ 47 µM).

For the compound `CC1(C)S[C@@H]2[C@H](NC(=O)[C@H](N)c3ccccc3)C(=O)N2[C@H]1C(=O)O` [AMPICILLIN], the zone of inhibition at 100 µg/mL in the assay with Staphylococcus aureus [1] turned out to be 11 mm; in the assay with Bacillus subtilis [2], 18 mm; in the assay on Escherichia coli [10] it was 24 mm; in the assay with Streptomyces griseus [15], 20 mm. The MIC is 12.5 µg/mL (≈ 35.8 µM) in the assay with Escherichia coli [4] (MTCC 443, 24 h); 12.5 µg/mL (≈ 35.8 µM) in the assay on Streptomyces griseus [5] (MTCC 4734, 24 h); 12.5 µg/mL (≈ 35.8 µM) in the assay on Staphylococcus aureus [12] (MTCC 3381, 24 h); 25 µg/mL (≈ 71.5 µM) in the assay on Bacillus subtilis [13] (MTCC 10619, 24 h).
